The source of these data is patent publication US10463685B2, “Telomerase mediated telomere altering compounds” (The Board of Regents of The University of Texas System, priority 2013, dated 2019).

Data set [1] deals with HCT116 cells. As to the kind of experiment: Cell count and morphology after one week of treatment. In kind it is cell-based, human. The settings on record: 3 μM, twice during one week. From the text:
HCT116 represents a human colon cancer cells, A549 models human lung epithelial cancer cells, H2882 models human lung epithelial cancer cells, HCC2429 models human lung epithelial cancer cells, HCC827 models human lung epithelial cancer cells, HCC15 models human lung epithelial cancer cells, H2087 models human lung epithelial cancer cells, HCC4017 models human lung epithelial cancer cells, HCC515 models human lung epithelial cancer cells, H2009 models human lung epithelial cancer cells, BJ-hTERT cells model telomerase expressing normal human fibroblast cells, and BJ human fibroblasts (telomerase silent) were grown in a Media X (Hyclone, Logan, Utah) supplemented with 10% cosmic calf serum (Hyclone).
Cancer HCT116 and normal BJ fibroblast cells were treated with 6-thio-dG (3 μM) and 6-thio-G (3 μM) twice during one week. Following one week of the treatment, cell morphology was monitored, and then the cells were collected and counted.

In data set [2] the test system is HCT116 cells. As to the kind of experiment: Telomere length assay (TRF), long-term culture. In kind it is cell-based, human. The protocol:
(§1) For long-term cellular experiments, HCT116 (1,000 cells/cm^2) and BJ (10,000 cells/cm^2) cells were fed with 6-thio-dG (1, 3, 10 μM) containing medium every three days. The cells were counted and replated every week for 10-16 weeks. Additionally, HCT116 cells (1,000 cells/cm^2) were fed with 6-thio-G (1, 3, 10 μM) every three days and each week cells were counted, collected for TRF (Telomere Restriction Fragment) analysis and replated. HCT116 cells, following treatment with 10 μM 6-thio-dG for 12 weeks, were then treated with a combination of 10 μM 6-thio-dG and […] GRN163L for 2-4 weeks.
1×10^6 cells were collected and washed with PBS. DNA was isolated using the manufacturer's instructions (Qiagen, Valencia, Calif.). 2.5 μg DNA was digested with six different restriction enzymes (HhaI, HinfI, MspI, HaeIII, RsaI, AluI) (New England Bio, Ipswich, Mass.) and incubated at 37° C. overnight. Digested DNA was separated on a 0.7% agarose gel overnight at 70 V. The terminal restriction fragment (TRF) gel was denatured for 20 min in denaturating solution (0.5 M NaOH, 1.5 M NaCl, pH 13.2) and dried on Whatman 3 MM paper under vacuum for 3 hours at 56° C. The gel was neutralized for 15 minutes in neutralization buffer (1.5 M NaCl, 0.5 M Tris-HCl, pH 8.0) and then probed with a radiolabeled telomeric probe (C-rich) for 16 hours at 42° C. in 5×SSC buffer, 5×Denhardt's solution, 10 mmol/L Na2HPO4, and 1 mmol/L Na2H2P2O7. The gel was washed once with 2×SSC, 0.1% SDS, twice with 0.5×SSC, 0.1% SDS and then twice with 0.5×SSC, 1% SDS at room temperature for 15 min. Gels were exposed to a PhosphorImager screen overnight and analyzed using a Typhoon PhosphorImager scanner system (Molecular Dynamics).
To determine if 6-thio-dG and 6-thio-G causes progressive telomere shortening, telomere lengths of treated cells were evaluated by TRF assay. Cancer HCT116 and normal BJ fibroblast cells were treated with 1 μM or 10 μM of 6-thio-dG for 1-12 weeks every 3 days. In addition, HCT116 cells were also treated with 1 μM or 10 μM 6-thio-G for 1-10 weeks every 3 days to determine if there is any effect of this molecule on telomeric length maintenance. The control was untreated. Each week samples were collected for TRF analysis at 1×10^6 cells/sample at 1, 5, and 12 weeks for cells treated with 6-thio-dG and 1, 5, and 10 for cells treated with 6-thio-G.
HCT116 cells were treated with either 10 μM 6-thio-dG alone for 12-16 weeks, or with 3 μM GRN163L alone for 11 weeks. Then, these long term 6-thio-dG treated surviving cells were cultured with a combination of 6-thio-dG (10 μM) and/or GRN163L (3 μM) for 2-4 additional weeks. […] Specifically, the HCT116 cells were treated beyond the 12 weeks of 6-thio-dG treatment with either GRN163L only or GRN163L+6-thio-dG, for an additional 2 and 4 weeks to determine if there is an effect on telomere length.

The subject of a further data set is BJ fibroblast cells. As to the kind of experiment: Telomere length assay (TRF), long-term culture. The data set is classed as cell-based, human. To be noted: BJ fibroblasts, 10 weeks. The protocol:
as §1
1×10^6 cells were collected and washed with PBS. DNA was isolated using the manufacturer's instructions (Qiagen, Valencia, Calif.). 2.5 μg DNA was digested with six different restriction enzymes (HhaI, HinfI, MspI, HaeIII, RsaI, AluI) (New England Bio, Ipswich, Mass.) and incubated at 37° C. overnight. […] Gels were exposed to a PhosphorImager screen overnight and analyzed using a Typhoon PhosphorImager scanner system (Molecular Dynamics).
To determine if 6-thio-dG and 6-thio-G causes progressive telomere shortening, telomere lengths of treated cells were evaluated by TRF assay. […]

Data set [3] relates to HCT116 cells. As to the kind of experiment: TIF assay, gamma-H2AX and TRF2 immuno-staining. In kind it is cell-based, human. The settings on record: HCT116, 3 μM. As for the experimental part: Briefly, HCT116 cells were plated in 4-well chamber slides and after the cells attached to the surface, either 3 μM 6-thio-dG or 3 μM 6-thio-G was added to the medium at different time points (0, 30 min, 12 h, 24 h, 48 h, 72 h). […] TIFs were quantified using Imaris software.
Cancer HCT116 cells were seeded in chamber slides. Following cell attachment, 6-thio-dG (3 μM) and 6-thio-G (3 μM) were added to fresh medium at various time points (0, 30 min, 2 h, 12 h, 24 h, 48 h, 72 h). To test if 6-thio-dG and 6-thio-G cause telomere dysfunction in cancer cells, TIF analysis was conducted. […] 6-thio-dG treatment causes a 2.8-fold increase in telomeric DNA damage as compared to 6-thio-G after 72 h (FIG. 4).

In data set [4] the test system is A549 human lung cancer cells. Nature of the data set: Tumor growth in xenograft animal model. The data set is classed as in vivo, mice. To be noted: 2.5 mg/kg every day. As for the experimental part:
Doses of 2.5 mg/kg of 6-thio-dG and 2.5 mg/kg of 6-thio-G were injected every day into mice after tumor implantation and providing time for tumor initiation. DMSO injections were used for the control. The volume of the tumor was measured.

The nature of a further data set: Toxicity testing in rats. In kind it is in vivo. To be noted: for mortality: rats. The protocol: Six rats were treated with 15 mg of 6-thio-dG/kg of body weight every two days. […] Another 5 rats were treated with 50 mg of 6-thio-dG/kg of body weight every other day. All rats died after 12 days.
The format of data set [5] is in vivo. As for the experimental part:
Six WT mice were treated with 1.67 mg of 6-thio-dG/kg of body weight daily. Six WT mice were treated with 1.67 mg of 6-thio-G/kg of body weight daily. Six WT mice were treated with 5 mg of 6-thio-dG/kg of body weight daily. Six WT mice were treated with 5 mg of 6-thio-G/kg of body weight daily. The mice were given the appropriate dosage and weighed daily for 25 days. […] In comparison, the mice receiving 6-thio-G at the same dose lost between 1-2 grams (6-12% of initial weight) over the course of the 25 day treatment. […] In comparison, the mice receiving 6-thio-G at the same dose loss around 2 grams and all mice died by the 15th day of treatment.

Like-named read-outs stand apart in the source and are kept apart here. [tNP] = thio-phosphoramidate internucleoside linkage; {Palm} = palmitoyl group

On to `Nc1nc2c(ncn2[C@H]2C[C@H](O)[C@@H](CO)O2)c(=S)[nH]1` [6-thio-dG, 6-thio-deoxyguanosine], for which the “cell count / cell death” value in the data set on HCT116 cells [1] was “death of the vast majority of HCT116 cells”. Moreover, in the data set on HCT116 cells [2] (HCT116, 10 μM, 12 weeks versus 16 weeks), the “telomere length on continued treatment” value is reported as “stabilized telomeres”. Moreover, the “telomere shortening (TRF)” value in the data set on HCT116 cells [2] (HCT116, 1 or 10 μM every 3 days, one week and five weeks) is “telomere shortening was detectable”. Besides, the “telomere length after return to medium without drug” value with HCT116 cells [2] (HCT116, 12 weeks 6-thio-dG, then no drug for 2-4 weeks) was “remained about the same”. Moreover, the “telomere shortening (TRF) compared to untreated control” value with BJ fibroblast cells is recorded as “did not show enhanced telomere shortening”. Besides, in the data set on HCT116 cells [3], the “genomic DNA damage compared to 6-thio-G” value is “overall increase in genomic DNA damage”. Moreover, in data set [4], the “histology of the residual tumors” value is “mostly fibrotic and often associated with apoptotic and inflammatory cells”; the “rate of tumor growth (tumor volume) compared to the control and 6-thio-G” value is reported as “rate of tumor growth was less”. The “signs of impaired function in remaining animals” value in the data set “Toxicity testing in rats” (rat, in vivo, 15 mg/kg) is listed as “no signs of impaired function”. The mortality result in the data set “Toxicity testing in rats” (15 mg/kg every two days, after 6 injections, six rats) is given as “One rat died”. The mortality result in “Toxicity testing in rats” (50 mg/kg every other day, after 12 days, 5 rats) is “All rats died”.
As for `Nc1nc2nc[nH]c2c(=S)[nH]1` [6-thio-G, 6-thioguanine, reference compound], the “telomere shortening (TRF) compared to untreated control” value in the data set with BJ fibroblast cells is “did not show enhanced telomere shortening”. Also, in data set [4], the “histology of the residual tumors” value was “mostly “healthy” growing cancerous cells”. For the same molecule, in data set [5] (WT mice, 5 mg/kg daily, by the 15th day of treatment), the mortality result is on record as “all mice died”. Also, the weight lost result in data set [5] (mouse, in vivo, 5 mg/kg) is recorded as “around 2 grams”.
Regarding “GRN163L: 13-mer thio-phophoramidate oligonucleotide 5′-TAGGGTTAGACAA-3′ with polmitoyl group at the 5′-end; direct competitive inhibitor of telomerase (all [tNP], 5' {Palm}, sugars by position and methylation of C not given here) [reference compound]”, the “telomere shortening (TRF) compared to the control” value in the data set on HCT116 cells [2] (HCT116, 3 μM alone, after 11 weeks) was “did not show any significant telomere shortening”. In addition, the “telomere shortening compared with cells cultured with 6-thio-dG for 12, 14 and 16 weeks” value in the data set with HCT116 cells [2] (HCT116, after 12 weeks of 10 μM 6-thio-dG, additional 2 and 4 weeks of treatment) was “increased telomere shortening”.
